Entries after “also recorded” stand apart in the source; their conditions may differ.
How the values were obtained:
DR11 = test: HLA-DR-specific binding assay (competitive ELISA), DR11; set-up: species or system human; details: ratio of the IC50 of each peptide by that of the reference peptide, HLA-DR immunopurified from homozygous EBV B lymphoblastoid cell, means from at least two independent experiments, <20 high, 20-100 moderate binder
Procedure: (§1) Human leukocyte antigen-DR molecules were immunopurified from homozygous EBV B lymphoblastoid cell as previously reported ([31], [32]). […] A strong binder to each HLA class II molecule was introduced in each assay as reference ([33]). Data were reported as relative affinity corresponding to the ratio of the IC50 of the tested peptide to the IC50 of the reference peptide. Means were calculated from at least two independent experiments.
(§2) Data are reported as number of bound HLA-DR molecules for each peptide. […] Black arrows: CD4 T cell epitopes.

DR15 = test: HLA-DR-specific binding assay (competitive ELISA), DR15; set-up: species or system human; details: ratio of the IC50 of each peptide by that of the reference peptide, HLA-DR immunopurified from homozygous EBV B lymphoblastoid cell, means from at least two independent experiments, <20 high, 20-100 moderate binder
Procedure: as §1, §2

PBMCs = test: T cell response to Ifx and Rtx peptides, short-term T cell assay (IL-5 ELISPOT); format: cell-based, human; details: for number of patients responding to the peptide: five patients with ADA, PBMCs cultured with pool of nine Ifx CD4 T cell epitopes for 10 days, then individual peptides (10 µg/mL); for T cell response, patient L: patient L with ADA against Rtx, complete set of 45 Rtx peptides; for T cell response, patient C: patient C with ADA against Ifx, complete set of 46 Ifx peptides
Procedure: PBMCs were seeded at 5 M/mL with peptides (10 µg/mL) in RPMI 1640 medium supplemented with 10% SAB, 50 IU/mL IL-2 (R&D), 1,000 U/mL IL-4 (R&D), and 1 µg/mL anti-CD28 (Miltenyi). The culture medium was changed every 2–3 days. Cells were harvested at day 10 and incubated with individual peptides (10 µg/mL) in AIM-V supplemented with 0.5 ng/mL IL-7 at 37°C in Multiscreen 96-well plates (Merck Millipore) previously coated overnight at 4°C with 4 µg/mL anti-human IL-5 MAb (TRFK5, Mabtech). After 48 h incubation, supernatants were collected, and IL-5 secretion was detected by successive addition of mouse biotinylated anti-human IL-5 Mab (TRFK4, Mabtech), Extravidin conjugate, and BCIP substrate (Sigma) as described above for IFNγ ELISPOT. Spots were counted with a computer-assisted video image analyzer (AID, Strassberg, Germany). […] Supernatants of IL-5 ELISPOT plates were submitted to Luminex cytokine assays (R&D) for six different cytokines (IL-2, IL-4, IL-10, IL-13, IL-17, and IFN-γ) according to the manufacturer’s instructions (R&D). […] Cytokine concentrations lower than the lower limits of detection were reported as undetectable.
To detect memory CD4 T cells, PBMCs were submitted to a short-term T cell assay with only one step of in vitro stimulation instead of multiple rounds of antigenic stimulation as we did with healthy donors to detect naïve T cells.

DR4 = test: HLA-DR-specific binding assay (competitive ELISA), DR4; set-up: species or system human; details: ratio of the IC50 of each peptide by that of the reference peptide, HLA-DR immunopurified from homozygous EBV B lymphoblastoid cell, means from at least two independent experiments, <20 high, 20-100 moderate binder
Procedure: as §1, §2

DR9 = test: HLA-DR-specific binding assay (competitive ELISA), DR9; set-up: species or system human; details: ratio of the IC50 of each peptide by that of the reference peptide, HLA-DR immunopurified from homozygous EBV B lymphoblastoid cell, means from at least two independent experiments, <20 high, 20-100 moderate binder
Procedure: as §1, §2

CD4 T cell lines = test: Peptide specificity of antibody-specific CD4 T cell lines from healthy donors (IFN-γ ELISPOT); format: cell-based, human; details: for HLA haplotypes of responders: healthy donors whose CD4 T cell lines responded to the peptide, one value per responding donor
From the text: Peripheral blood mononuclear cells (PBMCs) were obtained from blood cells collected at the Etablissement Français du Sang (EFS, Rungis, France), as buffy coat preparations from anonymous healthy donors who gave informed consent, in accordance with EFS guidelines. Antibody-specific CD4 T cell lines were generated as described previously ([28]). DCs were produced from plastic-adherent cells of PBMCs, while CD4 T cells were isolated from PBMCs by using magnetic microbeads (Miltenyi Biotech, Paris, France). DCs were loaded overnight at 37°C with the therapeutic antibody or with KLH used as a positive control (1 µM) and matured with lipopolysaccharide (1 µg/mL). CD4 T cells (200,000/w) were stimulated by protein-loaded DCs (20,000/w) and cultured during 21 days ([28]). Their peptide specificity was tested by interferon-γ (IFN-γ) ELISPOT ([28]). Spot number was determined by the AID ELISPOT Reader System (AID).
CD4 T cell lines were also raised against KLH to assess the ability of the donors to generate specific T cell responses (Figure S2 in Supplementary Material). Each independent T cell line (CD4 T cells present in a single well) was evaluated for its specificity using pools of 45 overlapping peptides encompassing the entire variable regions (VH and VL) of the therapeutic antibodies (Tables S3 and S4 in Supplementary Material), individual peptides, and DCs loaded with the therapeutic antibodies (Figure 1). […] HLA restriction was evaluated for T cell lines of donors #225 and #251 by inhibition experiments with anti-HLA class II antibodies.
T cells were incubated with autologous DCs alone (none) or with DCs previously loaded with each antibody (3 µM) or with autologous unloaded peripheral blood mononuclear cells (PBMCs) (no pool) or PBMCs loaded with a pool of peptides (10 µg/mL) (left panels) and with individual peptides (right panels).
Figure 2 Specificity and restriction of T cell lines generated from healthy donors. […] T cells were incubated with autologous unloaded peripheral blood mononuclear cells (PBMCs) (none) and with PBMCs loaded with individual peptides. […] (B) For inhibition assays, anti-HLA-DR (L243), -DQ (SPVL3), and -DP (B7/21) antibodies were added at 10 µg/mL to the IFN-γ ELISPOT.
Donors are identified by a number.

DR1 = test: HLA-DR-specific binding assay (competitive ELISA), DR1; set-up: species or system human; details: ratio of the IC50 of each peptide by that of the reference peptide, HLA-DR immunopurified from homozygous EBV B lymphoblastoid cell, means from at least two independent experiments, <20 high, 20-100 moderate binder
Procedure: as §1, §2

DR7 = test: HLA-DR-specific binding assay (competitive ELISA), DR7; set-up: species or system human; details: ratio of the IC50 of each peptide by that of the reference peptide, HLA-DR immunopurified from homozygous EBV B lymphoblastoid cell, means from at least two independent experiments, <20 high, 20-100 moderate binder
Procedure: as §1, §2

Row | relative binding activity, DR11 (DR11) | relative binding activity, DR15 (DR15) | relative binding activity, DR4 (DR4) | relative binding activity, DR9 (DR9) | relative binding activity, DR1 (DR1) | relative binding activity, DR7 (DR7) | Sequence | number of patients responding to the peptide (PBMCs) | HLA haplotypes of responders (CD4 T cell lines) | T cell response, patient L (PBMCs) | T cell response, patient C (PBMCs) | number of healthy donors responding to the peptide (CD4 T cell lines; CD4 T cell lines, 14 donors for Rtx and 15 donors for Ifx, IFN-γ ELISPOT)
1 | 7,500 | 24 | >10,526 | 474 | 11 | 35 | DILLTQSPAILSVSP [IL1–15, infliximab peptide] | three | DR3/DR7 |  |  | 
2 |  |  |  |  |  |  | EWIGAIYPGNGDTSY [RH46–60, rituximab peptide] |  |  | gave rise to a T cell response |  | 
3 | 196 | 0.4 | 88 | 177 | 216 | 32 | GYTFTSYNMHWVKQT [RH26–40, rituximab peptide] |  | DR1/DR8 |  |  | 
4 | 252 | >1,335 | 1,863 | 962 | 3,333 | 6,818 | INSATHYAESVKGRF [IH56–70, infliximab peptide] |  | DR4/DR15 |  | active | 
5 | 1,479 | 2,000 | 25,714 | 824 | 30,000 | 29,545 | IRSKSINSATHYAES [IH51–65, infliximab peptide] | one | DR4/DR15 |  |  | 
6 | 11 | 238 | 10,000 | >4,979 | 2,760 | 22,727 | PEKGLEWVAEIRSKS [IH41–55, infliximab peptide] | three | DR11/DR13 |  | active | 
7 | 463 | 71 | >462 | 106 | 45 | 3,341 | PGRGLEWIGAIYPGN [RH41–55, rituximab peptide] |  | DR13/DR16; also recorded: DR15/DR15 |  |  | two
8 |  | 467 | >462 | 816 | 4 | 12,500 | TADKSSSTAYMQLSS [RH71–85, rituximab peptide] |  | DR3/DR15 |  |  | 
9 | 378 | >1,826 | 156 | 589 | 32 | 250 | WVKQTPGRGLEWIGA [RH36–50, rituximab peptide] |  | DR11/DR14 | gave rise to a T cell response |  | 

— PMC5418239, “Characterization of CD4 T Cell Epitopes of Infliximab and Rituximab Identified from Healthy Donors” (Frontiers in Immunology, 2017)
